Data on 54 compounds can be found in patent US20050148631A1, “Amino heterocyclyl inhibitors of 11-beta-hydroxy steroid dehydrogenase type 1” (AGOURON PHARMACEUTICALS, INC., priority 2003, published 2005).

This assay has as its target 11β-hsd-1 enzyme (Homo sapiens, UniProt P28845). The assay can be described thus: 11β-hsd-1 enzyme assay, percentage of inhibition (3H-cortisone to cortisol, radio-HPLC). The settings on record: for inhibition at 0.1 µM: read-out: % inh @ 0.1 uM. The assay is classed as biochemical.

SMILES strings stand for the structures. Where two headings read alike, the source gives them in different places.

Sequence of 11β-hsd-1 enzyme (P28845 whole entry, species assumed): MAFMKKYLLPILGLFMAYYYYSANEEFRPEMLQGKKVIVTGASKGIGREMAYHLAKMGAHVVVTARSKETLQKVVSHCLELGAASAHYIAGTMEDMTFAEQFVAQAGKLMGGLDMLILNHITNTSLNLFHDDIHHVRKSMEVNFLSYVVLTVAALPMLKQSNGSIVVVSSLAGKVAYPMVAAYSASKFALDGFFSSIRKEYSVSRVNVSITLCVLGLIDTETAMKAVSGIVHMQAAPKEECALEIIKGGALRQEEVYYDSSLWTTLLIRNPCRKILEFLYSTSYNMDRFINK

Regarding `COC(=O)CCc1ccc(NS(=O)(=O)c2cccc(Cl)c2C)nc1` [Example 3], under “0.1 uM”, the inhibition at 0.1 µM came out at 19.6%.

Take `COC(=O)c1cccc(NS(=O)(=O)c2cccc(Cl)c2C)n1` [Example 4]: the inhibition at 0.1 µM (0.1 uM) amounted to 23.9%.

`CCOC(=O)Cc1cccc(NS(=O)(=O)c2ccc(C(F)(F)F)cc2)n1` [Example 5]: the inhibition at 0.1 µM (0.1 uM) is 0.3%.

Take `COC(=O)c1cccc(NS(=O)(=O)c2ccc(-c3ccc(C#N)cc3)cc2)n1` [Example 7]: the inhibition at 0.1 µM (0.1 uM) worked out at 7.7%.

On to `Cc1c(Cl)cccc1S(=O)(=O)Nc1cccc(CC(=O)N2CCOCC2)n1` [Example 8, 3-Chloro-2-methyl-N-[6-(2-morpholin-4-yl-2-oxo-ethyl)-pyridin-2-yl]-benzenesulfonamide], for which the inhibition at 0.1 µM (0.1 uM) was determined as 5.52%.

For `Cc1c(Cl)cccc1S(=O)(=O)Nc1cccc(CC(=O)N2CCCCC2)n1` [Example 9], the inhibition at 0.1 µM (0.1 uM) was 54.8%.

Consider `Cc1c(Cl)cccc1S(=O)(=O)Nc1cccc(CC(=O)N2CCSCC2)n1` [Example 10], for which the inhibition at 0.1 µM (0.1 uM) came out at 38.7%.

Turning to `Cc1c(Cl)cccc1S(=O)(=O)Nc1cccc(CC(=O)N2CCN(C)CC2)n1` [Example 11], the inhibition at 0.1 µM was 8.05%.

For the compound `Cc1c(Cl)cccc1S(=O)(=O)Nc1cccc(CC(=O)N2CCN(Cc3ccccc3)CC2)n1` [Example 12], the inhibition at 0.1 µM is 21.5%.

`Cc1c(Cl)cccc1S(=O)(=O)Nc1cccc(CC(=O)NCc2ccc(C(F)(F)F)cc2)n1` [Example 13]: the inhibition at 0.1 µM (0.1 uM) was 9.1%.

For `Cc1cc(CC(=O)N2CCCCC2)nc(NS(=O)(=O)c2cccc(Cl)c2C)c1` [Example 14], the inhibition at 0.1 µM (0.1 uM) is 25.9%.

`CCN(CC)C(=O)Cc1cc(C)cc(NS(=O)(=O)c2cccc(Cl)c2C)n1` [Example 15]: the inhibition at 0.1 µM (0.1 uM) turned out to be 23.6%.

In the case of `C=CCN(C)C(=O)Cc1cccc(NS(=O)(=O)c2cccc(Cl)c2C)n1` [Example 16], the inhibition at 0.1 µM (0.1 uM) stood at 10.9%.

Turning to `Cc1c(Cl)cccc1S(=O)(=O)Nc1cccc(CC(=O)N2CCCC2)n1` [Example 17], the inhibition at 0.1 µM (0.1 uM) stood at 11.4%.

With `CCN(CC)C(=O)CCc1ccc(NS(=O)(=O)c2cccc(Cl)c2C)nc1` [Example 18], the inhibition at 0.1 µM (0.1 uM) was 34.6%.

For the compound `CCN(CC)C(=O)Cc1cccc(NS(=O)(=O)c2ccc(C)cc2)n1` [Example 23], where the note is “0.1 uM”, the inhibition at 0.1 µM came out at 4.9%.

As to `CCN(CC)C(=O)Cc1cccc(NS(=O)(=O)c2ccc(F)cc2)n1` [Example 24], the inhibition at 0.1 µM (0.1 uM) is 3.7%.

Take `CCN(CC)C(=O)Cc1cccc(NS(=O)(=O)c2ccc(C(C)C)cc2)n1` [Example 25]: the inhibition at 0.1 µM (0.1 uM) amounted to 42.8%.

As for `Cc1c(Cl)cccc1S(=O)(=O)Nc1cccc(CC(=O)O)n1` [Example 26, [6-(3-Chloro-2-methyl-benzenesulfonylamino)-pyridin-2-yl]-acetic acid], the inhibition at 0.1 µM (0.1 uM) stood at 25.2%.

With `Cc1c(Cl)cccc1S(=O)(=O)Nc1cccc(CC(=O)NC23CC4CC(CC(C4)C2)C3)n1` [Example 27, N-Adamantan-1-yl-2-[6-(3-chloro-2-methyl-benzenesulfonylamino)-pyridin-2-yl]-acetamide], the inhibition at 0.1 µM (0.1 uM) amounted to 1.9%.

Turning to `Cc1c(Cl)cccc1S(=O)(=O)Nc1cccc(CC(=O)N2CCCC(C)(C)C2)n1` [Example 28], the inhibition at 0.1 µM (0.1 uM) came to 45.6%.

Turning to `Cc1c(Cl)cccc1S(=O)(=O)Nc1cccc(CC(=O)N(CCC#N)C2CC2)n1` [Example 29], the inhibition at 0.1 µM (0.1 uM) is 10.9%.

Turning to `Cc1c(Cl)cccc1S(=O)(=O)Nc1cccc(CC(=O)N(C)C(C)C)n1` [Example 30], the inhibition at 0.1 µM (0.1 uM) came out at 15.9%.

As for `Cc1c(Cl)cccc1S(=O)(=O)Nc1cccc(CC(=O)N(C)C)n1` [Example 31], for the setting “0.1 uM”, the inhibition at 0.1 µM stood at 11.3%.

Regarding `Cc1c(Cl)cccc1S(=O)(=O)Nc1cccc(CC(=O)N2CCC(F)(F)CC2)n1` [Example 32], under “0.1 uM”, the inhibition at 0.1 µM is 20.4%.

`Cc1cc(C)nc(NS(=O)(=O)c2cccc(Cl)c2C)c1` [Example 44]: under “0.1 uM”, the inhibition at 0.1 µM came to 16%.

As for `Cc1cc(C)nc(NS(=O)(=O)c2ccc(C(F)(F)F)cc2)c1` [Example 45], the “% inh @ 0.1 uM” value (0.1 uM) was 35%.

On to `Cc1cccc(NS(=O)(=O)c2ccc(Oc3ccccc3)cc2)n1` [Example 47], for which the inhibition at 0.1 µM (0.1 uM) worked out at 21%.

Consider `Cc1ccc(S(=O)(=O)Nc2cccc(C)n2)cc1` [Example 49], for which the inhibition at 0.1 µM (0.1 uM) worked out at 82.6%.

With `Cc1cccc(NS(=O)(=O)c2cccc(C(F)(F)F)c2)n1` [Example 50], where the note is “0.1 uM”, the inhibition at 0.1 µM turned out to be 10.1%.

With `Cc1cccc(NS(=O)(=O)c2cccc3ccccc23)n1` [Example 51], where the note is “0.1 uM”, the inhibition at 0.1 µM was 10.2%.

For the compound `Cc1cccc(NS(=O)(=O)c2ccc(C(C)(C)C)cc2)n1` [Example 52], the inhibition at 0.1 µM (0.1 uM) turned out to be 32%.

For `Cc1cccc(NS(=O)(=O)c2ccc(C#N)cc2Cl)n1` [Example 53], the inhibition at 0.1 µM (0.1 uM) was found to be 10.1%.

On to `Cc1cccc(NS(=O)(=O)c2ccccc2C(F)(F)F)n1` [Example 54], for which, under “0.1 uM”, the inhibition at 0.1 µM came to 1%.

`Cc1cccc(NS(=O)(=O)c2ccc(F)cc2F)n1` [Example 55]: the inhibition at 0.1 µM (0.1 uM) worked out at 7.4%.

Turning to `O=S(=O)(Nc1ccc2cc[nH]c2c1)c1ccc(-c2ccc(F)cc2)cc1` [Example 57], the inhibition at 0.1 µM (0.1 uM) is 4.5%.

Take `Cc1cc(C)nc(NS(=O)(=O)c2cccc(Cl)c2C)n1` [Example 58]: the inhibition at 0.1 µM (0.1 uM) came to 4%.

As for `Cc1ccnc(NS(=O)(=O)c2ccc(-c3ccccc3)cc2)n1` [Example 59], the inhibition at 0.1 µM (0.1 uM) worked out at 3.8%.

Take `O=S(=O)(Nc1ccc2nc[nH]c2c1)c1ccc(-c2ccc(F)cc2)cc1` [Example 60]: the inhibition at 0.1 µM (0.1 uM) was found to be 31.9%.

As to `COc1cccc(NS(=O)(=O)c2ccc(C(F)(F)F)cc2)n1` [Example 62], the inhibition at 0.1 µM (0.1 uM) is 1.3%.

With `Cc1cccc(NS(=O)(=O)c2ccc3oc4ccccc4c3c2)n1` [Example 63], under “0.1 uM”, the inhibition at 0.1 µM was found to be 32.7%.

With `O=S(=O)(Nc1cccc(CN2CCOCC2)n1)c1ccc(-c2ccccc2)cc1` [Example 64], the inhibition at 0.1 µM (0.1 uM) was found to be 8.9%.

With `Cc1ccc(NS(=O)(=O)c2ccc(-c3ccccc3)cc2)nc1` [Example 66], the inhibition at 0.1 µM (0.1 uM) was 33.8%.

For the compound `Cc1cccc(NS(=O)(=O)Cc2cccc(Cl)c2)n1` [Example 67], the inhibition at 0.1 µM (0.1 uM) was found to be 49.6%.

Turning to `Cc1cccc(NS(=O)(=O)Cc2ccc(C(F)(F)F)cc2)n1` [Example 73], where the note is “0.1 uM”, the inhibition at 0.1 µM was determined as 17.3%.

For `Cc1cccc(NS(=O)(=O)Cc2ccc(Cl)c(Cl)c2)n1` [Example 74], the inhibition at 0.1 µM (0.1 uM) was 28.9%.

Consider `Cc1cccc(NS(=O)(=O)Cc2cc(Cl)cc(Cl)c2)n1` [Example 75], for which, where the note is “0.1 uM”, the inhibition at 0.1 µM came out at 19.2%.

In the case of `CCc1cccc(NS(=O)(=O)c2ccc(C(C)C)cc2)n1` [Example 76], the inhibition at 0.1 µM (0.1 uM) is 15.6%.

`Cc1cc(C)nc(NS(=O)(=O)c2ccc(C(F)(F)F)cc2)c1` [Example 77]: for the setting “0.1 uM”, the inhibition at 0.1 µM came out at 35.4%.

Consider `COc1cccc(NS(=O)(=O)c2ccc(-c3ccc(C#N)cc3)cc2)n1` [Example 78], for which the inhibition at 0.1 µM (0.1 uM) came out at 8.2%.

As to `CN(C)Cc1cccc(NS(=O)(=O)c2ccc(-c3ccc(C#N)cc3)cc2)n1` [Example 79], the inhibition at 0.1 µM (0.1 uM) turned out to be 8.1%.

As to `Cc1cccc(NS(=O)(=O)c2c(Cl)nc3sccn23)n1` [Example 80], for the setting “0.1 uM”, the inhibition at 0.1 µM came to 8%.

Consider `COc1ccc(S(=O)(=O)Nc2cccc(C)n2)cc1` [Example 81], for which the inhibition at 0.1 µM (0.1 uM) was 23.4%.

Consider `N#Cc1ccc(-c2ccc(S(=O)(=O)Nc3ccccn3)cc2)cc1` [Example 82], for which the inhibition at 0.1 µM (0.1 uM) was determined as 53.4%.
